Experimental data reported in patent US9925162B2, “Methods and compositions for inducing physiological hypertrophy” (THE REGENTS OF THE UNIVERSITY OF COLORADO, priority 2009, dated 2018).

Tests used:
[1] = system: Neonatal rat ventricular myocytes (NRVMs); assay: Inhibition of fatty acid transport blocks serum-induced NRVM hypertrophy; assay type: cell-based; settings: Coulter Counter
Protocol: Synthesis of Sulfo-N-succinimidyl oleate (SSO) was performed as described by Harmon et al. (J. Membr Biol.; 121:261-268; 1991), which is hereby incorporated by reference. Briefly, oleate (0.25 mM), HOSu(SO3)Na (0.25 mM), and dicyclohexylcarbodiimide (DCC) (0.275 mM) were dissolved in 0.5 ml of dry N,N-dimethylformamide (DMF) and stirred overnight at room temperature. Precipitated dicyclohexyturea was removed by filtration, and the filtrate cooled to 3° C. for 4 hours. Eight volumes of ethyl acetate were added, and the precipitated product was collected by filtration under nitrogen and then stored in a vacuumed desiccator over phosphorus pentoxide. Neonatal rat ventricular myocytes (NRVMs) were cultured in serum-free media (MEM/Hepes/PB12) containing insulin, transferrin, BSA, and BrdU. NRVMs were treated with serum (2%) in the presence and absence of SSO (400 μM) for 48 hours and cell size was determined using a Coulter Counter.

[2] = system: neonatal rat cardiomyocytes; assay: Fasted plasma supplemented with fatty acids, NRVM cell size; assay type: cell-based; settings: fasted plasma 2% supplemented to 1 DPF-like levels (C14 40 μM; C16 137 μM; C16:1 7.5 μM), 48 hours, FIG. 10
Protocol: (§1) Individual fatty acids were complexed to BSA as described by de Vries et al. (J. Lipid Res.; 38:1384-1394; 1997), which is hereby incorporated by reference. […] An equal volume of Na2CO3 (10 mM) was added and the ethanol was evaporated at 60° C. under continuous N2 flow. The fatty acid mix was added dropwise to 10% BSA. BSA/fatty acid complexes were then dialyzed four times at 4° C. during 4-6 hours in NH4HCO3 (0.1 M). Complexes were then frozen, lyophilized overnight, and resuspended in NRVM rinse media (MEM/PB12/Hepes) for a final concentration of 7 mM. NRVMs were treated with fasted serum, 1 day post-fed serum, or fasted serum+individual fatty acids. […] NRVM gene expression and mean cell diameter were determined after either 24 or 48 hours, respectively.

Aquaporin 7 = assay: Aqp7 mRNA by qPCR after fatty acid treatment; assay type: cell-based, rat; settings: fasted plasma supplemented with FFAs, relative to 1 DPF plasma, FIG. 11
Protocol: as §1

SMILES | cell growth induced by the fed-serum ([1]; SSO 400 μM, 2% 1DPF serum, 48 hours) | cell size ([1]; SSO and no serum (control)) | changes in cell size [2] | Aqp7 mRNA levels (Aquaporin 7)
CCCCCCCC/C=C\CCCCCCCC(=O)ON1C(=O)CC(S(=O)(=O)O)C1=O (stereo not shown) [SSO, Sulfo-N-succinimidyl oleate] | completely blocks | smaller | – | –
CCCCCCCCCCCCCC(=O)O [C14, tetradecanoic acid] | – | – | significant increase | comparable levels observed with 1 DPF plasma
